From patent publication US6436890B1, “Antimicrobial detergent composition” (Inui Corporation, priority 1999, dated 2002)
Read-outs that look alike come from different tables or passages of the source.

Assays:
Type in all cases: cell-based
[1] = test system: Staphylococcus aureus JCI (MRSA); assay: Antimicrobial power against MRSA, MIC by Nutrient Broth liquid medium dilution method; details: for MIC: Staphylococcus aureus JCI (MRSA); for Antimicrobial activity against MRSA (in words): at a low concentration
Description: Antimicrobial power against MRSA (Methicillin-resistant Staphylococcus aureus) of N,N′-hexamethylenebis (4-carbamoyl-1-decylpyridinium bromide) (“Dimer 38” manufactured by INUI CORPORATION) and 4,4′-(tetramethylenecarbonyldiamino)bis(1-decyl-pyridinium bromide) (“Dimer 136” manufactured by INUI CORPORATION). L-broth (5 ml) was inoculated with Staphylococcus aureus JC1 and, after incubation at 37° C. for 18 hours, the MIC (minimum inhibitory concentration) of Dimer 38 and Dimer 136 was measured according to the Nutrient Broth liquid medium dilution method.

[2] = test system: Staphylococcus aureus IFO 12732
Description: (§1) L-broth (5 ml) was inoculated with each bacteria and, after incubation at 37° C. for 18 hours, the MIC (minimum inhibitory concentration) was measured according to the Nutrient Broth liquid medium dilution method.

[3] = test system: Bacillus subtilis ATCC 6633
Description: as §1

[4] = test system: Pseudomonas aeruginosa ATCC 10145
Description: as §1

[5] = test system: Escherichia coli K12W3110
Description: as §1

4,4′-(tetramethylenedicarbonyldiamino)bis(1-decylpyridinium bromide) [Dimer 136]
MIC [1]: 0.6 ppm | Antimicrobial activity against MRSA (in words) [1]: demonstrate an antimicrobial activity against MRSA

CCCCCCCCCC[n+]1ccc(C(=O)NCCCCCCNC(=O)c2cc[n+](CCCCCCCCCC)cc2)cc1.[Br-].[Br-] [Dimer 38, N,N′-Hexamethylenebis(4-carbamoyl-1-decylpyridinium bromide)]
MIC [1]: 0.2 ppm | Antimicrobial activity against MRSA (in words) [1]: demonstrate an antimicrobial activity against MRSA

CC(=O)[O-].CC(=O)[O-].CCCCCCCCCC[n+]1ccc(C(=O)NCCCCCCNC(=O)c2cc[n+](CCCCCCCCCC)cc2)cc1 [Dimer 38A, N,N′-hexamethylenebis(4-carbamoyl-1-decylpyridinium acetate)]
MIC ([2]; procedure 1 of 7, S. aureus IFO 12732): 0.1 ppm | MIC ([2]; procedure 2 of 7, S. aureus IFO 12732): 0.01 ppm | MIC ([2]; procedure 3 of 7, S. aureus IFO 12732): 0.05 ppm | MIC ([2]; procedure 4 of 7, S. aureus IFO 12732): 0.01 ppm | MIC ([2]; procedure 5 of 7, S. aureus IFO 12732): 0.1 ppm | MIC ([2]; procedure 6 of 7, S. aureus IFO 12732): 0.1 ppm | MIC ([2]; procedure 7 of 7, S. aureus IFO 12732): 0.05 ppm | MIC ([3]; procedure 1 of 7, B. subtilis ATCC 6633): 0.8 ppm | MIC ([3]; procedure 2 of 7, B. subtilis ATCC 6633): 0.2 ppm | MIC ([3]; procedure 3 of 7, B. subtilis ATCC 6633): 0.4 ppm | MIC ([3]; procedure 4 of 7, B. subtilis ATCC 6633): 0.2 ppm | MIC ([3]; procedure 5 of 7, B. subtilis ATCC 6633): 0.4 ppm | MIC ([3]; procedure 6 of 7, B. subtilis ATCC 6633): 0.4 ppm | MIC ([3]; procedure 7 of 7, B. subtilis ATCC 6633): 0.4 ppm | MIC ([4]; procedure 1 of 7, P. aeruginosa ATCC 10145): 3.1 ppm | MIC ([4]; procedure 2 of 7, P. aeruginosa ATCC 10145): 3.1 ppm | MIC ([4]; procedure 3 of 7, P. aeruginosa ATCC 10145): 6.3 ppm | MIC ([4]; procedure 4 of 7, P. aeruginosa ATCC 10145): 6.3 ppm | MIC ([4]; procedure 5 of 7, P. aeruginosa ATCC 10145): 6.3 ppm | MIC ([4]; procedure 6 of 7, P. aeruginosa ATCC 10145): 6.3 ppm | MIC ([4]; procedure 7 of 7, P. aeruginosa ATCC 10145): 3.1 ppm | MIC ([5]; procedure 1 of 7, E. coli K12W3110): 1.6 ppm | MIC ([5]; procedure 2 of 7, E. coli K12W3110): 0.8 ppm | MIC ([5]; procedure 3 of 7, E. coli K12W3110): 0.8 ppm | MIC ([5]; procedure 4 of 7, E. coli K12W3110): 0.8 ppm | MIC ([5]; procedure 5 of 7, E. coli K12W3110): 1.6 ppm | MIC ([5]; procedure 6 of 7, E. coli K12W3110): 1.6 ppm | MIC ([5]; procedure 7 of 7, E. coli K12W3110): 1.6 ppm
